In patent publication US6444683B2, “17-azolyl steroids useful as androgen synthesis inhibitors” (University of Maryland at Baltimore, priority 1997, dated 2002):
“Also recorded” adds a separate entry of the source. Read-outs that look alike come from different tables or passages of the source.

What was measured:
serum DHT levels = conditions: BPH patients; cited from earlier work
[1] = molecular target: T1, human prostate 5α-reductase (Homo sapiens, UniProt P31213); assay: Inhibition of human prostate 5α-reductase in BPH microsomes (conversion of [7-3H]-testosterone to DHT); assay type: biochemical
T1 construct: The enzymatic reactions were initiated by addition of human BPH microsomes; from tissue; host or cells: human benign prostatic hyperplasia (BPH) tissue, microsomal fraction
T1 sequence (P31213 1-254): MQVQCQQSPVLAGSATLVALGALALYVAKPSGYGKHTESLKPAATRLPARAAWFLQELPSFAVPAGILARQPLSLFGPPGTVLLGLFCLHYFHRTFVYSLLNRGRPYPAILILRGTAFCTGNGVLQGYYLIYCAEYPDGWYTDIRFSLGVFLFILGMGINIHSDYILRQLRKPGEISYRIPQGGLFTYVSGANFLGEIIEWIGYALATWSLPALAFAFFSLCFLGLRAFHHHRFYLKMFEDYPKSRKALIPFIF
Description: […] The ethanol was evaporated to dryness under a gentle stream of air. […] The enzymatic reactions were initiated by addition of human BPH microsomes (about 180 μg of microsomal protein in 500 μl of phosphate buffer) in a total volume of 1.0 ml, and the incubations were performed for 10 min under oxygen in a shaking water bath at 37° C. The incubations were terminated by placing the sample tubes on ice and the addition of ether. Also, [^14C]-DHT (3000 dpm) and cold DHT (50 μg) were added to each tube as an internal standard and visualization marker, respectively. The steroids were extracted with ether and separated by TLC (chloroform:ether, 80:20) and visualized by exposure to iodine vapor. The extracts were analyzed for ^3H and ^14C using a liquid scintillation counter. The percentage conversion of [7-^3H]-testosterone to [^3H]-dihydrotestosterone was calculated and used to determine 5α-reductase activity.

[2] = tested on: LNCaP human prostatic cancer cell; conditions: cited from earlier work
[3] = Stability at room temperature (TLC evidence); assay type: physicochemical
Description: The method followed that described for Synthesis Example 14, but using 3β-acetoxy-17-(1H-tetrazol-1-yl)-16-formylandrosta-5,16-diene (Compound 23) (140 mg, 0.3415 mmol). Purification of the crude product by FCC (silica gel, pet. ether/EtOAc (3:1)) gave Compound 26 (45 mg, 34.5%); ^1H NMR (300 MHz, CDCl3): δ 1.08 (3H, s, 18-Me), 1.20 (3H, s, 19-Me), 2.04 (3H, s, 3β-OAc), 4.62 (1H, m, 3α-H), 5.42 (1H, d, J=4.6Hz, 6-H), 6.00 (1H, s, 16-H) and 8.93 (1H, s, 5′-H). […] (TLC evidence) and was used for the subsequent reaction without further characterization.

[4] = small group of men with advanced prostatic cancer; cited from earlier work
Human P45017α = molecular target: T2, Human P45017α (Homo sapiens, UniProt P05093); assay: Inhibition of human testicular microsomal P45017α (lyase activity, release of C3H3COOH from [21-3H3]-17α-hydroxypregnenolone); assay type: biochemical
T2 construct: Human testicular microsomes were prepared from human testes; from tissue; host or cells: human testes (untreated prostatic cancer patients undergoing orchidectomy), microsomal fraction
T2 sequence (P05093 1-508): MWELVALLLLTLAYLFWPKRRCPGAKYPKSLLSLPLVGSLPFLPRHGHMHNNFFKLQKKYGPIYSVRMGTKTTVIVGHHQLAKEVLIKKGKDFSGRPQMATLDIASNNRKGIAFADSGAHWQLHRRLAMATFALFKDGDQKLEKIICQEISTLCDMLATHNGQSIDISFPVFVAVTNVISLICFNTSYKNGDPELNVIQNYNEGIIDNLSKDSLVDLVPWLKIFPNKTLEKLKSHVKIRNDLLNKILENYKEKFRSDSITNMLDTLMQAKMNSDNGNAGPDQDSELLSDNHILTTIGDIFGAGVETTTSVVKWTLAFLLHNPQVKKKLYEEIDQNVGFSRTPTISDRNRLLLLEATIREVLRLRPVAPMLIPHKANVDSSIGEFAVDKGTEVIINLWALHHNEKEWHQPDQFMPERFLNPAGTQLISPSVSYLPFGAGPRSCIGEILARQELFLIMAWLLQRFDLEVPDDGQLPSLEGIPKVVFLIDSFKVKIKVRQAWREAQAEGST
Description: (§1) The microsomes were stored at −70° C. until assayed. Just before use, the thawed microsomes were diluted with 0.1 M phosphate buffer (pH 7.4) to appropriate concentrations.
(§2) This assay measures only the lyase activity of the P45017α enzyme.
(§3) IC50 values for inhibitors were calculated from the linear regression line in the plot of logit of lyase activity versus log of inhibitor concentration. […] Each inhibitor was examined at three concentrations.

[5] = tested on: LNCaP human prostatic cancer cell; assay: Androgen-stimulated growth of LNCaP human prostatic cancer cells in vitro
Rat P45017α = molecular target: T3, Rat P45017α (Rattus norvegicus, UniProt P11715); assay: Inhibition of rat testicular microsomal P45017α (lyase activity); assay type: biochemical
T3 sequence (P11715 1-507): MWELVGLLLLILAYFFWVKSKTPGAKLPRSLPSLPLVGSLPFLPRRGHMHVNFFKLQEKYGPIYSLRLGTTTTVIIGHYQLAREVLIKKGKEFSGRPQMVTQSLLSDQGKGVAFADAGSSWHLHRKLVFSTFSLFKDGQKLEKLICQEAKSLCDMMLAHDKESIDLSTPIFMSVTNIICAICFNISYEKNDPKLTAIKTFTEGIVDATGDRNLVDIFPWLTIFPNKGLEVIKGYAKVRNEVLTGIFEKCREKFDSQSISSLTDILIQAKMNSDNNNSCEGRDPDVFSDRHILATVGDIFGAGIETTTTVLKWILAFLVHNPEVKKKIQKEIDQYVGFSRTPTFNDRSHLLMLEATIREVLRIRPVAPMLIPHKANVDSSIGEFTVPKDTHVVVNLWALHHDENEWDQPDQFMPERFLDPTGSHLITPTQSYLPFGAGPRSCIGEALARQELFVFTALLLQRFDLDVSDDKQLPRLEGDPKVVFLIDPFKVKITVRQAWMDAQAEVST
Description: as §1, §2, §3

CC(C)(C)NC(=O)[C@H]1CC[C@H]2[C@@H]3CC[C@H]4NC(=O)C=C[C@]4(C)[C@H]3CC[C@]12C [Finasteride, reference compound]
Reduction of serum DHT levels (serum DHT levels): 65-80% | IC50 [1]: 33 ± 2 nM

C[C@]12CC[C@H]3[C@@H](CCC4=CC(=O)CC[C@@]43C)[C@@H]1CC[C@@H]2O [testosterone]
Increase of growth of LNCaP cells compared to vehicle-treated cells ([2]; 0.1 nM testosterone): 6 fold

CC(=O)O[C@H]1CC[C@@]2(C)C(=CC[C@@H]3[C@@H]2CC[C@]2(C)C(n4cnnn4)=CC[C@@H]32)C1 [Compound 26, 3β-acetoxy-17-(1H-tetrazol-1-yl)androsta-5,16-diene]
Stability at room temp. [3]: not particularly stable at room temp.

C[C@]12CCC(=O)C(O)=C1CC[C@@H]1[C@@H]2CC[C@]2(C)C(=O)CC[C@@H]12 [Compound 4-OHA, 4-hydroxyandrostene-3,17-dione]
Patients with subjective responses [4]: 80%

C[C@]12CC[C@H](O)CC1=CC[C@@H]1[C@@H]2CC[C@]2(C)C(n3ccnn3)=CC[C@@H]12 [Compound 20, 3β-hydroxy-17-(1H-1,2,3-triazol-1-yl)androsta-5,16-diene]
IC50 (Human P45017α): 13 ± 1 nM | Ki (Human P45017α; Human P45017α Ki): 1.4 nM | Inhibition of human P45017α, in words (Human P45017α; human testicular microsomes): potent inhibitors; also recorded: powerful inhibitors | inhibition at 0.15 µM (Human P45017α; inhibitor 150 nM, substrate 17α-hydroxypregnenolone 10 μM, mean of two determinations, read-out: % Inhibition of human P45017α): 94% | inhibition at 5 µM ([5]; Homo sapiens, LNCaP, read-out: Inhibition of DHT-induced growth of LNCaP cells): 100% | inhibition at 2.5 µM ([5]; Homo sapiens, LNCaP, read-out: Inhibition of testosterone-stimulated growth of LNCaP cells): 100% | Toxicity to LNCaP cells ([5]; concentration range 0.5-5.0 μM): nor was toxic to the cells | Antiandrogenic effects ([5]; inferred from inhibition of androgen-stimulated LNCaP growth): strong antiandrogenic effects | IC50 ([1]; human BPH microsomes, mean ± SDM of at least two experiments, read-out: 5α-Reductase IC50): ~10000 nM | IC50 (Rat P45017α): 10 ± 0.4 nM

C[C@]12CCC(=O)C[C@@H]1CC[C@@H]1[C@@H]2CC[C@]2(C)[C@@H](O)CC[C@@H]12 [DHT, dihydrotestosterone]
Stimulation of proliferation of LNCaP cells compared to control ([2]; 30 pM DHT): 5 fold
